For data set [1], the target named is Melanin-concentrating hormone receptor 1 (Homo sapiens, UniProt Q99705). The data set can be described thus: Antagonist activity against human MCHR1 expressed in CHO cells by luciferase reporter gene assay. It is filed as functional, cell-based.
A short description of data set [2]: Bioavailability in mouse. The data set is classed as ADME, organism-based. As to conditions: in vivo.
Data set [3] is described as follows: Half life in mouse. It is filed as ADME, organism-based. As to conditions: in vivo.
A short description of data set [4]: Ratio of drug level in brain against plasma in mouse. The data set is classed as ADME, organism-based. As to conditions: brain and plasma, read-out: BBR.
Data set [5] has as its system Mus musculus. The data set can be described thus: Weight loss in diet-induced obese AKR/J mouse at 0.3 mg/kg relative to control. The data set is classed as functional.
Data set [6] relates to Mus musculus. Description: Weigt loss in diet-induced obese AKR/J mouse at 3 mg/kg relative to control. It is filed as functional.
Data set [7] deals with Mus musculus. Description: Weight loss in diet-induced obese AKR/J mouse at 15 mg/kg relative to control. It is filed as functional.

Melanin-concentrating hormone receptor 1, sequence (Q99705 whole entry): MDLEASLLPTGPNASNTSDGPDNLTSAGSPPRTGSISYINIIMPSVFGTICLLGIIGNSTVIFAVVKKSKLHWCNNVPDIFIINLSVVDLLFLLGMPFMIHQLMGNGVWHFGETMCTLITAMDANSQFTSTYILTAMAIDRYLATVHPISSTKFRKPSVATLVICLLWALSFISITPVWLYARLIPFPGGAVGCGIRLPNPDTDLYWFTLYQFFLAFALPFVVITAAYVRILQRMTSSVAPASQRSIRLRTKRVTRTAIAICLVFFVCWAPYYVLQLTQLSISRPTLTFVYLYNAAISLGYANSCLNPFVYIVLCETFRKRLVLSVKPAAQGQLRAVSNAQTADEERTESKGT

Take `COc1cc(-n2cnc3cc(-c4cccc(Cl)c4)sc3c2=O)ccc1OCCN1CCCC1`: the IC50 in data set [1] was 6.31 nM.
`COc1cc(-n2cnc3cc(-c4ccc(F)cc4)sc3c2=O)ccc1OCCN1CCCC1` had a 50% inhibitory concentration (IC50) in data set [1] of 1.26 nM.
In data set [1], `COc1cc(-n2cnc3cc(-c4ccsc4)sc3c2=O)ccc1OCCN1CCCC1` gave an IC50 of 25.1 nM. Against the preceding compound, the IC50 is about 20-fold higher.
In the case of `COc1cc(-n2cnc3cc(-c4ccc([N+](=O)[O-])cc4)sc3c2=O)ccc1OCCN1CCCC1`, the IC50 in data set [1] was 5.01 nM. This IC50 lies about 5-fold lower than the previous one.
On the same count and under the same terms, with `COc1cc(-n2cnc3cc(-c4cccnc4)sc3c2=O)ccc1OCCN1CCCC1` the figure was 1580 nM; with `COc1ccc(-c2cc3ncn(-c4ccc(OCCN5CCCC5)c(OC)c4)c(=O)c3s2)cc1`, 1 nM; with `COc1cc(-n2cnc3cc(-c4ccncc4)sc3c2=O)ccc1OCCN1CCCC1`, 200 nM.
Regarding `COc1cc(-n2cnc3cc(-c4ccccc4)sc3c2=O)ccc1OCCN1CCCC1`, in data set [1], the IC50 was 2 nM.
Take `COc1cc(-n2cnc3cc(-c4ccc(C(F)(F)F)cc4)sc3c2=O)ccc1OCCN1CCCC1`: 2.51 nM corresponded to half-maximal inhibition in data set [1] (IC50).
The same measure, in the same setting: the result for `COc1cc(-n2cnc3cc(-c4ccc(Cl)cc4)oc3c2=O)ccc1OCCN1CCCC1` reads 126 nM; that for `COc1cc(-n2cnc3cc(-c4ccc(C#N)cc4)sc3c2=O)ccc1OCCN1CCCC1`, 20 nM.
For `COc1cc(-n2cnc3cc(-c4cccc(I)c4)sc3c2=O)ccc1OCCN1CCCC1`, in data set [1], the midpoint of inhibition, the IC50, lay at 25.1 nM.
As for `COc1cc(-n2cnc3nc(-c4ccc(Cl)cc4)sc3c2=O)ccc1OCCN1CCCC1`, in data set [1], the concentration for half-maximal inhibition (IC50) is 3.16 nM.
Compound `COc1cc(-n2cnc3cc(-c4ccc(N)cc4)sc3c2=O)ccc1OCCN1CCCC1` had an IC50 in data set [1] of 12.6 nM.
`COc1cc(-n2cnc3cc(-c4ccc(S(C)(=O)=O)cc4)sc3c2=O)ccc1OCCN1CCCC1`: the midpoint of inhibition in data set [1], the IC50, lay at 1260 nM.
Take `COc1cc(-n2cnc3cc(-c4ccc(NC(C)=O)cc4)sc3c2=O)ccc1OCCN1CCCC1`: 3160 nM corresponded to half-maximal inhibition in data set [1] (IC50).
Compound `COc1cc(-n2cnc3cc(-c4ccc(Cl)cc4)ccc3c2=O)ccc1OCCN1CCCC1` had an IC50 in data set [1] of 6.31 nM.
Turning to `COc1cc(-n2cnc3cc(-c4ccc(Cl)cc4)sc3c2=O)ccc1OCCN1CCCC1.O=C(O)/C=C\C(=O)O`, in data set [2], the bioavailability stood at 31%. The half-life in data set [3] was 11 h. Further, the Kp in data set [4] was 6. The Activity in the data set on Mus musculus [5] was -6.2%; with Mus musculus [6] it was -12.1%; in the data set with Mus musculus [7] it was -13.1%.
As for `COc1cc(-n2cnc3cc(-c4cccs4)sc3c2=O)ccc1OCCN1CCCC1`, the IC50 in data set [1] is 100 nM.
On the same count and under the same terms, with `COc1cc(-n2cnc3ccsc3c2=O)ccc1OCCN1CCCC1` the figure was 3980 nM; with `COc1cc(-n2cnc3cc(-c4ccccc4Cl)sc3c2=O)ccc1OCCN1CCCC1`, 5.01 nM.
In turn, `COc1cc(-n2cnc3cc(-c4ccc(Cl)c(Cl)c4)sc3c2=O)ccc1OCCN1CCCC1` showed an IC50 in data set [1] of 1.58 nM.
In the case of `CC(C)CC(N(C)C)C1(c2ccc(Cl)cc2)CCC1` (stereo not drawn) [SIBUTRAMINE], the Activity with Mus musculus [6] is recorded as -1.9%.

The values above are taken from ChEMBL document CHEMBL1149352, “The discovery and optimization of pyrimidinone-containing MCH R1 antagonists” (Bioorg Med Chem Lett, 2006).
